The text below walks through data of patent US10793589B2, “Resorcinarene-based amphipathic compound and use thereof” (Industry-University Cooperation Foundation Hanyang …, priority 2016, dated 2020).

The nature of data set [1]: Critical micelle concentration by fluorescence dye diphenylhexatriene (DPH). The format is physicochemical. Here is the method: A method of measuring the CMC is not particularly limited and may be any method generally known in the art. For example, the CMC may be measured according to a fluorescence staining method using diphenylhexatriene (DPH).
(§1) Specifically, critical micelle concentrations (CMCs) were measured using a fluorescence dye, diphenylhexatriene (DPH), and hydrodynamic radii (Rh) of micelles formed of each compound (1.0 wt %) were measured by a dynamic light scattering (DLS) experiment. Measured results are shown in Table 1 in comparison with values of DDM as an existing amphipathic molecule (detergent).

Data set [2] can be described thus: Hydrodynamic radius and size distribution of micelles by dynamic light scattering (DLS). Format: physicochemical. The following applies: compound 1.0 wt %. How it is done: A method of measuring the radius of a micelle is not particularly limited and may be any method generally known in the art. For example, the radius may be measured by a dynamic light scattering (DLS) experiment.
as §1
Meanwhile, size distributions of the micelles formed by RGAs and RMAs were measured using DLS.

Data set [3] deals with leucine transporter (LeuT). Put plainly: LeuT structural stability, [3H]-Leu binding by scintillation proximity assay (SPA). Format: biochemical, Aquifex aeolicus. The conditions noted are these: CMC+0.04 wt % versus CMC+0.2 wt %. Here is the method:
FIGS. 7A and 7B are a set of graphs illustrating a result of measuring the structural stability of a leucine transporter (LeuT) solubilized in RGAs or DDM evaluated at CMC+0.04 wt % (a) or CMC+0.2 wt % (b). Protein stability was determined by measuring the ability of the transporter to bind a radiolabeled ligand ([3H]-Leu) via scintillation proximity assay (SPA). The substrate binding ability of LeuT was measured at regular intervals during 10 days of incubation of the protein at room temperature in the presence of individual amphipathic compounds.
FIGS. 8A and 8B are a set of graphs illustrating a result of measuring the structural stability of a leucine transporter (LeuT) solubilized in RMAs or DDM evaluated at CMC+0.04 wt % (a) or CMC+0.2 wt % (b). Protein stability was determined by measuring the ability of the transporter to bind a radiolabeled ligand ([3H]-Leu) via scintillation proximity assay (SPA). The substrate binding ability of LeuT was measured at regular intervals during 10 days of incubation of the protein at room temperature in the presence of individual amphipathic compounds.
An experiment was carried out to measure the structural stability of a leucine transporter (LeuT) caused by RGAs and RMAs. The concentrations of individual amphipathic compounds were (a) CMC+0.04 wt % or (b) CMC+0.2 wt %, and the substrate binding characteristic of LeuT was measured by scintillation proximity assay (SPA) using [^3H]-Leu. […]
Specifically, wild type LeuT derived from Aquifex aeolicus which is a thermophilic bacterium was purified according to the method described in the paper (Nature 1998, 392, 353-358) written by G. Deckert et al. LeuT was expressed in E. coli C41 (DE3) transformed with pET16b encoding a C-terminal 8×His-tagged transporter (an expression plasmid was provided by Dr. E. Gouaux (Vollum Institute, Portland, Oreg., USA)). […] The protein samples were stored at room temperature for 10 days and centrifuged at designated time points, and protein characteristics were determined by measuring the binding capacity of [^3H]-Leucine using SPA. […]
In general terms: SPA uses beads or plates that emit light when radiolabelled molecules are held near them.

Data set [4] deals with T1, Salmonella typhimurium melibiose permease (MelB) (Salmonella typhimurium, UniProt P30878).
T1 construct: made in house; host or cells: E. coli DW2 (melB and lacZY deleted), plasmid pK95AHB/WT MelBSt/CH10
T1 sequence (P30878 whole entry): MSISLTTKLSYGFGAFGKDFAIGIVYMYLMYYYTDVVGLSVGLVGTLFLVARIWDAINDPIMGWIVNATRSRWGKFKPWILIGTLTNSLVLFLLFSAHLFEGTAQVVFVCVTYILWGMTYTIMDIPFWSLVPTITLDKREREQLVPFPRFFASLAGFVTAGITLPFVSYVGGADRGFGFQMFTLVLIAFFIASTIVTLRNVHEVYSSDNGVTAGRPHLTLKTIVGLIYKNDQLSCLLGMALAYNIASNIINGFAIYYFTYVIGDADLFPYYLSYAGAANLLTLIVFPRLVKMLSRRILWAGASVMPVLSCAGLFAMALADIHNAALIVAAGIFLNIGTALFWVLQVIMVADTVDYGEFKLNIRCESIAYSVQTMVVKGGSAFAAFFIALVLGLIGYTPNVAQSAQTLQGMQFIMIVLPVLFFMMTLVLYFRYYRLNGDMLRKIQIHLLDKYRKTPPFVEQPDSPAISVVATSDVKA
Put plainly: MelB extraction and solubility after 90 min incubation, SDS-PAGE and western blotting. The format is biochemical. The following applies: 1.5 wt %. Here is the method: FIGS. 9A and 9B illustrate a result of measuring the amount of a MelB protein dissolved in an aqueous solution after a MelB protein was extracted at four temperatures (0, 45, 55, and 65) using RGAs or DDM at a concentration of 1.5 wt % and then incubated at the same temperatures for 90 minutes:
RGAs were selected, and an experiment was carried out to measure the structural stability of a Salmonella typhimurium melibiose permease (MelB) caused by RGAs. A MelB protein was extracted from a membrane using RGAs or DDM, and the amount and structure of the protein thus extracted was then analyzed by performing SDS-PAGE and western blotting. In this case, the concentration of the used amphipathic compound was 1.5 wt %. The protein was extracted at four temperatures (0, 45, 55, and 65° C.) and then incubated at the same temperatures for 90 minutes. Subsequently, two kinds of performance of the compound, that is, protein extraction efficiency and protein stability were evaluated at the same time by measuring the amount of a protein which remained dissolved in an aqueous solution. The amount of a protein which was extracted and stabilized by an individual amphipathic molecule was expressed as a relative value (%) with respect to the amount of the entire protein included in a membrane sample not treated with an amphipathic molecule.
Specifically, a C-terminal 10-His-tagged Salmonella typhimurium melibiose permease (MelBSt) was expressed in E. coli DW2 cells (melB and lacZY) using plasmid pK95AHB/WT MelBSt/CH10. Cells were grown and membranes were prepared according to the method described in a paper (Nat. Commun. 2014, 5, 3009) written by A. S. Ethayathulla et al. A protein assay was carried out with a Micro BCA kit (Thermo Scientific, Rockford, Ill.). RGAs and DDM were evaluated to measure the stability of MelBSt according to the protocol described in a paper (Nat. Methods 2010, 7, 1003-1008) written by P. S. Chae et al. The membrane sample (final protein concentration of 10 mg/mL) containing MelBSt was incubated in a solubilization buffer containing 1.5% (w/v) DDM or RGAs (20 mM sodium phosphate, pH 7.5, 200 mM NaCl, 10% glycerol, and 20 mM melibiose) at four temperatures (0, 45, 55, and 65° C.) for 90 minutes. An insoluble material was removed by ultracentrifugation at 355,590 g at 4° C. for 45 minutes using a Beckman Optima™ MAX ultracentrifuge equipped with a TLA-100 rotor. A dissolved portion was separated by SDS-16% PAGE, and immunoblotting was then performed using a Penta-His-HRP antibody (Qiagen, Germantown, Md.). A membrane fraction containing 20 μg of protein without treatment was used to illustrate the overall MelB, and the treated samples were loaded into each well in equal volume. MelBSt was measured using the SuperSignal West Pico Chemiluminescent substrate by ImageQuant LAS 4000 Biomolecular Imager (GE Healthcare Life Sciences).

The target in data set [5] is T2, human β2 adrenergic receptor (β2AR) (Homo sapiens, UniProt P07550).
T2 construct: made in house
T2 sequence (P07550 whole entry): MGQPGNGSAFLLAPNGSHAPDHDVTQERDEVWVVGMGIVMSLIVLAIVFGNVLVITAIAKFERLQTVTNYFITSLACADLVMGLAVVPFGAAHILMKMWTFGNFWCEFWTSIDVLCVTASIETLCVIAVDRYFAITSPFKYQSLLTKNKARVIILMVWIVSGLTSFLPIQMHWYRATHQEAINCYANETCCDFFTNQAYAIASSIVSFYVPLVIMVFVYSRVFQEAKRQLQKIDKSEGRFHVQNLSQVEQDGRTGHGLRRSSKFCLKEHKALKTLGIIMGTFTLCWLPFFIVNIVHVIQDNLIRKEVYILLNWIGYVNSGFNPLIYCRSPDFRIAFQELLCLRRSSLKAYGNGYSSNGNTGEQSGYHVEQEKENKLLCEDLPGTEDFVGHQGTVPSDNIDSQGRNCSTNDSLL
Put plainly: β2AR stability, [3H]-dihydroalprenolol (DHA) ligand binding assay. Format: biochemical. Here is the method:
FIGS. 10A and 10B illustrate a result of measuring the effect of RGAs on the stability of β2AR after (a) 0 hour and (b) over time. Protein-ligand binding characteristics were measured via ligand binding assay using [^3H]-dihydroalprenolol (DHA), and the measurement was carried out by sampling a protein sample at regular intervals during 2 days of storage at room temperature.
FIGS. 12A and 12B illustrate a result of measuring the effect of RMAs on the stability of β2AR after (a) 0 hour and (b) over time. Protein-ligand binding characteristics were measured via ligand binding assay using [^3H]-dihydroalprenolol (DHA), and the measurement was carried out by sampling a protein sample at regular intervals during 2 days of storage at room temperature.
An experiment was carried out to measure the structural stability of a human (32 adrenergic receptor (β2AR) and a G protein-coupled receptor (GPCR) caused by RGAs and RMAs. That is, a receptor purified with DDM was diluted with a buffer solution containing only each RGA and RMA without cholesteryl hemisuccinate (CHS) or a buffer solution containing CHS and DDM. The final concentration of the compound was CMC+0.2 wt %, and the ligand binding characteristic of the receptor was measured using [^3H]-dihydroalprenolol ([^3H]-DHA) binding.
Specifically, radioligand binding assay was carried out using the following method. β2AR was purified using 0.1% DDM according to the method described in a paper (Science, 2007, 318, 1266-1273.) written by D. M. Rosenbaum et al. and finally concentrated to about 10 mg/ml (about 200 μM). The β2AR purified with DDM was used to prepare a master binding mixture containing 10 nM [^3H]-dihydroalprenolol (DHA) supplemented with 0.5 mg/ml BSA in a 0.2% amphipathic compound (DDM, RGAs or RMAs). The receptor purified with DDM, RGAs or RMAs was incubated with 10 nM [^3H]-DHA at room temperature for 30 minutes. The mixture was loaded into a G-50 column, the flow-through was collected with 1 ml of a binding buffer (20 mM HEPES pH 7.5, 100 mM NaCl, supplemented with 0.5 mg/ml BSA and 20×CMC individual amphipathic compound, and the G-50 column was further filled with 15 ml of a scintillation fluid. Receptor-bound [^3H]-DHA was measured with a scintillation counter (Beckman). The binding capacity of [^3H]-DHA was measured and shown in a column graph. Each experiment was performed in triplicate.

The target in data set [6] is T2, human β2 adrenergic receptor (β2AR). Put plainly: Size exclusion chromatography (SEC) of β2AR receptor-detergent complex. The following applies: 20×CMC detergent. How it is done: FIG. 11 illustrates a result of evaluating the size characteristic of a (32AR protein-ligand binding complex formed of RGA-C11, RGA-C13, or DDM via a size exclusion chromatography (SEC) test.
In addition, a size exclusion chromatography (SEC) test was conducted. Specifically, β2AR purified with 0.1% DDM was loaded on a M1 Flag column in the presence of 2 mM CaCl2, and the column was washed with a DDM, RGA-C11 or RGA-C13 detergent buffer (20 mM HEPES pH 7.5, 100 mM NaCl, 0.2% individual amphipathic compound). The receptor was eluted with 20×CMC DDM, RGA-C11, or RGA-C13 with 5 mM EDTA and 0.2 mg/ml free Flag peptide. The eluate was further added to a Superdex-200 10/300 GL column (GE Healthcare) at 0.5 ml/min, and UV absorbance at 280 nm was recorded. The running buffer contained 20 mM HEPES pH 7.5, 100 mM NaCl, 20×CMC individual detergent (DDM, RGA-C11 and RGA-C13).

Entries after “also recorded” stand apart in the source; their conditions may differ. Like-named read-outs stand apart in the source and are kept apart here.

`CCCCCCCCCCCCO[C@@H]1O[C@H](CO)[C@@H](O[C@H]2O[C@H](CO)[C@@H](O)[C@H](O)[C@H]2O)[C@H](O)[C@H]1O` [DDM, n-dodecyl-β-D-maltopyranoside, reference compound] yielded a CMC in data set [1] of 0.17 mM. Moreover, in data set [1] (DPH fluorescence), the CMC is 0.17 mM and the “CMC (wt %)” value is recorded as 0.0087 wt %. In addition, the “Rh (nm), hydrodynamic radius of micelles” value in data set [2] was 3.4 ± 0.0 nm. The “LeuT stabilization as concentration of compound increased” value in data set [3] is “constant structural collapse of the solubilized transporter”. The “MelB protein extraction/solubilization efficiency” value in data set [4] (0° C.) is listed as “high MelB protein extraction efficiency”. Moreover, the “MelB protein extraction efficiency and solubility” value in data set [4] (45° C.) was “high MelB protein extraction efficiency”. For the same compound, in data set [4] (65° C.), the MelB protein extraction entry is given as “hardly extracted”.

Take `CCCCCCCCCC[C@H]1c2cc(c(OCCO[C@@H]3OC(CO)[C@@H](O)[C@H](O)C3O)cc2OCCO[C@@H]2OC(CO)[C@@H](O)[C@H](O)C2O)[C@H](CCCCCCCCCC)c2cc(c(OCCO[C@@H]3OC(CO)[C@@H](O)[C@H](O)C3O)cc2OCCO[C@@H]2OC(CO)[C@@H](O)[C@H](O)C2O)[C@@H](CCCCCCCCCC)c2cc(c(OCCO[C@@H]3OC(CO)[C@@H](O)[C@H](O)C3O)cc2OCCO[C@@H]2OC(CO)[C@@H](O)[C@H](O)C2O)[C@@H](CCCCCCCCCC)c2cc1c(OCCO[C@@H]1OC(CO)[C@@H](O)[C@H](O)C1O)cc2OCCO[C@@H]1OC(CO)[C@@H](O)[C@H](O)C1O` (some centres unmarked) [RGA-C11]: the “CMC (wt %)” value in data set [1] (DPH fluorescence) is roughly 0.0081 wt %. The “Rh (nm), hydrodynamic radius of micelles” value in data set [2] worked out at 6.8 ± 0.2 nm. In data set [4] (55° C.), the “MelB protein extraction efficiency and solubility” value is “maintained MelB solubility better than DDM; also recorded: higher protein extraction efficiency than DDM”. The “maintaining the ligand binding characteristic of the receptor compared to DDM” value in data set [5] (0 hour, CMC+0.2 wt %, [3H]-DHA) is listed as “superior to DDM”. Besides, the “ability to maintain the ligand binding of the receptor over time compared to DDM” value in data set [5] (2 days at room temperature, early stage (0 to 12 h)) was “superior ability to maintain the ligand binding of the receptor compared to DDM”. Also, the “size of receptor-detergent complex” value in data set [6] is “significantly smaller than that formed of DDM”.
